Source: patent US11013235B2 (priority 2015, dated 2021)
Like-named read-outs stand apart in the source and are kept apart here.

What was measured:
Assay type in all cases: in vivo
Rhizoctonia solani [1] = experiment: Control of Rhizoctonia solani disease in tobacco (Rs-Nt); conditions: 1 μM spraying every 24 hours for one week, water control 87
Method: (§1) In order to compare the effect of the compounds of formula I to V on the control of diseases in different plants, experiments were conducted in tobacco, tomato and Arabidopsis thaliana plants inoculated with Phytophthora parasitica, Rhizoctonia solani, Alternaria solani, Nocardia sp and Botrytis cinerea, respectively. The compounds were applied by spraying, at a concentration of 1 μM, every 24 hours for one week. The plant mortality rate was determined for the disease produced by Phytophthora parasitica, Rhizoctonia solani and Nocardia sp, while the percentage of leaves with symptoms was determined for the infection by Alternaria solani. In the case of plants affected by Botrytis cinerea, the lesion diameter was measured. […] Each treatment included fifty plants. As control, plants treated with water were studied. The plants of each treatment were previously inoculated with the indicated pathogens, according to different inoculation protocols (Frontiers in Plant Science 3: 268, 1-6, 2012), and later they were treated with the compounds.

Botrytis cinerea [2] = experiment: Control of Botrytis cinerea disease in tobacco (Bc-Nt); conditions: 1 μM spraying every 24 hours for one week, water control 6.7
Method: as §1

Meloidogyne incognita = experiment: Nematode control, nodules per plant: Meloidogyne incognita; conditions: 1 μM foliar application every 5 days, evaluation 35 days after, control 34
Method: (§2) The solutions of the compounds were prepared in ethanol and diluted in water, up to a concentration of 1 μM for a foliar application. Applications were conducted every 5 days, spraying only the leafs with each compound. Ten plants were used for each treatment and the final evaluation was performed 35 days after, by quantifying the number of nodules per plant.

Nocardia sp = experiment: Control of Nocardia sp disease in tobacco (N-Nt); conditions: 1 μM spraying every 24 hours for one week, water control 58
Method: as §1

Botrytis cinerea [3] = experiment: Control of Botrytis cinerea disease in tomato (Bc-SI); conditions: 1 μM spraying every 24 hours for one week, water control 7.4
Method: as §1

Phytophthora parasitica = experiment: Control of Phytophthora parasitica disease in tobacco (Pp-Nt); conditions: 1 μM spraying every 24 hours for one week, water control 91
Method: as §1

Alternaria solani = experiment: Control of Alternaria solani disease in tomato (As-SI); conditions: 1 μM spraying every 24 hours for one week, water control 68
Method: as §1

[4] = system: Candidatus 'Liberibacter asiaticus'; conditions: spraying every 15 days, 12 months after treatment, Citrus sinensis with HLB
Rhizoctonia solani [5] = experiment: Control of Rhizoctonia solani disease in tomato (Rs-SI); conditions: 1 μM spraying every 24 hours for one week, water control 96
Method: as §1

Radopholus similis = experiment: Nematode control, nodules per plant: Radopholus similis; conditions: 1 μM foliar application every 5 days, evaluation 35 days after, control 45
Method: as §2

Botrytis cinerea [6] = experiment: Control of Botrytis cinerea disease in Arabidopsis (Bc-At); conditions: 1 μM spraying every 24 hours for one week, water control 8.7
Method: as §1

Pratylenchus coffeae = experiment: Nematode control, nodules per plant: Pratylenchus coffeae; conditions: 1 μM foliar application every 5 days, evaluation 35 days after, control 42
Method: as §2

| Compound | Rs-Nt: percentage of mortality (Rhizoctonia solani [1]) [%] | Bc-Nt: mean of the diameter of the lesion (Botrytis cinerea [2]) [mm] | Mi: number of nodules per plant (Meloidogyne incognita) | N-Nt: percentage of mortality (Nocardia sp) [%] | Bc-SI: mean of the diameter of the lesion (Botrytis cinerea [3]) [mm] | Pp-Nt: percentage of mortality (Phytophthora parasitica) [%] | As-SI: percentage of leaves with the disease symptoms (Alternaria solani) [%] | Titers of the bacterium ([4]; 0.001 μM) [copies per reaction] | Titers of the bacterium ([4]; 0.01 μM) [copies per reaction] | Titers of the bacterium ([4]; 1 μM) [copies per reaction] | Titers of the bacterium ([4]; 5 μM) [copies per reaction] | Titers of the bacterium ([4]; 10 μM) [copies per reaction] | Rs-SI: percentage of mortality (Rhizoctonia solani [5]) [%] | Rs: number of nodules per plant (Radopholus similis) | Bc-At: mean of the diameter of the lesion (Botrytis cinerea [6]) [mm] | Pc: number of nodules per plant (Pratylenchus coffeae) |
| --- | --- | --- | --- | --- | --- | --- | --- | --- | --- | --- | --- | --- | --- | --- | --- | --- |
| O=C(CCc1cc2cc3ccoc3cc2oc1=O)NCC(O)CO (centres unmarked) [IF, N-(2,3-dihydroxypropyl)-3-{2-oxo-2H-furo[3,2-g]chromen-3-yl}propanamide] | 0 | 0.9 | 0 | 0 | 1.2 | 0 | 5 | 985 | 0 | 0 | 98 | 6325 | 1 | 0 | 0.7 | 0 |
| O=C(CCc1cc2cc3c(-n4cccc4)coc3cc2oc1=O)NCC(O)CO (centres unmarked) [IG, N-(2,3-dihydroxypropyl)-3-[2-oxo-6-(1H-pyrrol-1-yl)-2H-furo[3,2-g]chromen-3-yl]propanamide] | 0 | 0.3 | 0 | 0 | 0.8 | 3 | 7 | 657 | 11 | 1 | 65 | 5423 | 1 | 31 | 1.2 | 0 |
| Cc1coc2cc3oc(=O)c(CCC(=O)NCC(O)CO)c(C)c3cc12 (centres unmarked) [IH, N-(2,3-dihydroxypropyl)-3-{4,6-dimethyl-2-oxo-2H-furo[3,2-g]chromen-3-yl}propanamide] | 2 | 2.0 | 21 | 1 | 1.6 | 1 | 1 | 658 | 8 | 12 | 68 | 4569 | 3 | 19 | 1.1 | 11 |
| Cc1c(CCC(=O)NCC(O)CO)c(=O)oc2cc3occ(-c4ccccc4)c3cc12 (centres unmarked) [II, N-(2,3-dihydroxypropyl)-3-{4-methyl-2-oxo-6-phenyl-2H-furo[3,2-g]chromen-3-yl}propanamide] | 3 | 0.9 | 3 | 1 | 0.8 | 2 | 2 | 756 | 14 | 14 | 76 | 8420 | 2 | 2 | 0.5 | 13 |
| CC1=COC2c3cc(CC(=O)NCC(O)CO)c(=O)oc3C=CC12 (centres unmarked) [IIA, N-(2,3-dihydroxypropyl)-2-{5-methyl-11-oxo-3,10-dioxatricyclo[7.4.0.0^{2,6}]trideca-1(9),4,7,12-tetraen-12-yl}acetamide] | 2 | 0.9 | 2 | 1 | 0.8 | 1 | 1 | 598 | 14 | 0 | 98 | 9845 | 3 | 17 | 0.5 | 14 |
| O=C(Cc1cc2c(oc1=O)C=CC1C(c3ccccc3)=COC21)NCC(O)CO (centres unmarked) [IIB, N-(2,3-dihydroxypropyl)-2-{11-oxo-5-phenyl-3,10-dioxatricyclo[7.4.0.0^{2,6}]trideca-1(9),4,7,12-tetraen-12-yl}acetamide] | 3 | 1.5 | 3 | 1 | 2.5 | 2 | 2 | 432 | 17 | 2 | 43 | 8654 | 2 | 2 | 1.5 | 14 |
| O=C(Cc1cc2c(oc1=O)C=CC1C(C3CCCCC3)=COC21)NCC(O)CO (centres unmarked) [IIC, 2-{5-cyclohexyl-11-oxo-3,10-dioxatricyclo[7.4.0.0^{2,6}]trideca-1(9),4,7,12-tetraen-12-yl}-N-(2,3-dihydroxypropyl)acetamide] | 4 | 1.5 | 4 | 2 | 0.8 | 1 | 3 | 123 | 25 | 2 | 23 | 4562 | 2 | 18 | 2.4 | 2 |
| O=C(Cc1cc2c(oc1=O)C=CC1C(C3CCCC3)=COC21)NCC(O)CO (centres unmarked) [IID, 2-{5-cyclopentyl-11-oxo-3,10-dioxatricyclo[7.4.0.0^{2,6}]trideca-1(9),4,7,12-tetraen-12-yl}-N-(2,3-dihydroxypropyl)acetamide] | 0 | 0.9 | 0 | 1 | 1.2 | 0 | 8 | 587 | 12 | 2 | 87 | 1351 | 2 | 0 | 0.7 | 17 |
